Data published in patent US4357344A, “Polybutylbenzylphenols and benzyl-3,4-methylenedioxybenzenes in insect population control” (The United States of America as represented by the …, priority 1979, dated 1982).

Experiments:
Assay type in all cases: in vivo
[1] = tested on: early fourth-stage larvae of the common malaria mosquito (Anopheles quadrimaculatus); assay: Growth-inhibition tests on mosquito larvae; details: in water; corrected by Abbott's formula
Method: The compound to be tested was added to one liter of water until the final concentration thereof was a growth-inhibiting amount. Fifty early fourth-stage larvae of the common malaria mosquito (Anopheles quadrimaculatus) were placed on this water. Larval food was administered daily. Dead larvae and pupae were removed, counted, and discarded daily. Live pupae were removed, rinsed, and transferred to a cup of distilled water. The cup was placed in an emergence cage, and the emerging adults, if any, were maintained on a sugar-water diet.
The effectiveness of the compound in inhibiting growth was determined by adding the number of dead larvae and pupae and the number of adults that were dead, unable to complete eclosion, and malformed. This sum was corrected by Abbott's formula (to adjust for the number of larvae or pupae which would die naturally) and designated as the GI (growth inhibition). The results are expressed as GI-90, i.e., the concentration of growth inhibitor in ppm that would prevent and/or retard growth in 90% of the treated larvae.

flies (family Muscidae) [2] = assay: Oviposition inhibition tests (treated fly food; Examples 6-9)
Method: The compound to be tested was administered in a standard fly food containing 6 parts of sugar, 6 parts of powdered non-fat dry milk, and 1 part of powdered egg yolk. Treated food was prepared by mixing an appropriate amount of a solution or suspension of CBCP in acetone with a batch of the food. The acetone was evaporated (4-6 hours) and the dry material was repulverized. Oviposition inhibition tests: Samples of treated food with a container of water were placed in cages containing 100 newly-emerged adult flies (family Muscidae). After the flies had been exposed to the treated diet for 6-7 days, 1/2 inch of moist standard fly larva-rearing medium (CSMA) in souffle cups was placed in the cages for oviposition. After 4-6 hours, the cup was removed and examined for eggs. […] The procedure outlined in Example 6 was followed using a Group II compound. The procedure outlined in Example 6 was followed using Group III compounds. The results are summarized below: The procedure outlined in Example 6 was followed substituting a Group IV compound for those of Group I. The table below provides a summary of results.

flies (family Muscidae) [3] = assay: Chemosterilancy tests (egg hatch and pupal development; Examples 6-9)
Method: The compound to be tested was administered in a standard fly food containing 6 parts of sugar, 6 parts of powdered non-fat dry milk, and 1 part of powdered egg yolk. Treated food was prepared by mixing an appropriate amount of a solution or suspension of CBCP in acetone with a batch of the food. The acetone was evaporated (4-6 hours) and the dry material was repulverized.
Chemosterilancy tests: If eggs were laid in the above tests, the cups were filled with water and stirred to break up the egg masses. A random sample of 100 eggs from each cup was collected and placed on a small piece of black cloth which was then laid on top of moist larva-rearing medium in a rearing container. Observations were made to determine percentage of egg hatch and pupal development.
The procedure outlined in Example 6 was followed using a Group II compound.
The procedure outlined in Example 6 was followed using Group III compounds. The results are summarized below:
The procedure outlined in Example 6 was followed substituting a Group IV compound for those of Group I. The table below provides a summary of results.

SMILES | GI-90 (concentration of growth inhibitor that would prevent and/or retard growth in 90% of the treated larvae) [1] | Mortality, parent generation (flies (family Muscidae) [2]; 0.025% in food) | Egg hatch (flies (family Muscidae) [3]; 0.025% in food) | Pupal development (flies (family Muscidae) [3]; 0.025% in food) | Mortality, parent generation (flies (family Muscidae) [2]; 0.05% in food) | Mortality, parent generation (flies (family Muscidae) [2]; 0.1% in food) | Mortality, parent generation (flies (family Muscidae) [2]; 0.25% in food) | Mortality, parent generation (flies (family Muscidae) [2]; 0.5% in food) | Egg hatch (flies (family Muscidae) [3]; 0.05% in food) | Pupal development (flies (family Muscidae) [3]; 0.05% in food) | Egg hatch (flies (family Muscidae) [3]; 0.1% in food) | Pupal development (flies (family Muscidae) [3]; 0.1% in food) | Egg hatch (flies (family Muscidae) [3]; 0.25% in food) | Pupal development (flies (family Muscidae) [3]; 0.25% in food) | other results
COc1ccc(C(C)c2cc3c(cc2OC)OCO3)cc1 (stereo not drawn) [H, (α-Methyl-4-methoxybenzyl)-3,4-methylenedioxy-6-methoxybenzene] | 0.5 ppm | 0% | 45% | 45% |  |  |  |  |  |  |  |  |  |  | Mortality, parent generation (flies (family Muscidae) [2]; 0.01% in food): 0%; Egg hatch (flies (family Muscidae) [3]; 0.01% in food): 14%; Pupal development (flies (family Muscidae) [3]; 0.01% in food): 14%
COc1ccc(Cc2cc3c(cc2OCCC(C)C)OCO3)cc1 [S, (4-Methoxybenzyl)-3,4-methylenedioxy-6-iso-pentoxybenzene] | 0.036 ppm |  |  |  | 0% | 0% | 0% | 0% | 55% | 55% | 6% | 6% | 0% | 0% | Egg hatch (flies (family Muscidae) [3]; 0.5% in food): 0%; Pupal development (flies (family Muscidae) [3]; 0.5% in food): 0%
CCCCOc1cc2c(cc1C(C)c1ccc(OC)cc1)OCO2 (stereo not drawn) [J, (α-methyl-4-methoxybenzyl)-3,4-methylenedioxy-6-n-butoxybenzene] | 0.025 ppm | 0% | 61% | 61% | 0% |  |  |  | 3% | 3% |  |  |  |  | Mortality, parent generation (flies (family Muscidae) [2]; 0.01% in food): 0%
CCCOc1cc2c(cc1C(C)c1ccccc1)OCO2 (stereo not drawn) [U, (α-Methylbenzyl)-3,4-methylenedioxy-6-n-propoxybenzene] | 0.3 ppm | 0% | 42% | 42% | 0% | 0% | 0% | 0% | 0% | 0% | 0% | 0% | 0% | 0% | Mortality, parent generation (flies (family Muscidae) [2]; 1.0% in food): 0%; Egg hatch (flies (family Muscidae) [3]; 0.5% in food): 0%; Pupal development (flies (family Muscidae) [3]; 0.5% in food): 0%; Egg hatch (flies (family Muscidae) [3]; 1.0% in food): 0%; Pupal development (flies (family Muscidae) [3]; 1.0% in food): 0%
CCOc1c(C)cc(Cc2ccc3c(c2)OCO3)cc1C [KK] | 0.9 ppm |  |  |  |  |  | 0% | 85% |  |  |  |  | 85% | 85% | 
COc1ccc(Cc2cc3c(cc2OC(C)C)OCO3)cc1 [O, (4-Methoxybenzyl)-3,4-methylenedioxy-6-iso-propoxybenzene] | 0.8 ppm |  |  |  | 0% |  | 0% | 80% | 48% | 48% |  |  | 0% | 0% | 
COc1ccc(Cc2ccc3c(c2)OCO3)c(OC)c1 [LL, (2,4-Dimethoxybenzyl)-3,4-methylenedioxybenzene] | 0.2 ppm |  |  |  |  | 0% | 60% |  |  |  | 76% | 76% |  |  | 
CCCc1cc2c(cc1Cc1ccc(OC)cc1)OCO2 [DD, (4-Methoxybenzyl)-3,4-methylenedioxy-6-n-propylbenzene] | 0.2 ppm | 0% | 7% | 7% | 0% | 0% | 0% |  | 0% | 0% | 0% | 0% |  |  | 
